According to patent publication US11446287B2, “Compounds and methods for EP300 or CBP modulation and indications therefor” (Opna Immuno-Oncology SA, priority 2019, dated 2022):
pIC50: −log10 of the molar value.

target: T1, Recombinant human BRD4 containing dual bromodomains (BRD4-BD12 (1-477)) (Homo sapiens, UniProt O60885); experiment: BRD4 Alphascreen binding assay
T1 construct: Recombinant human BRD4 containing dual bromodomains (BRD4-BD12 (1-477)); made in house; host or cells: E. coli BL21-CodonPlus (DE3), modified pET vector
How it was run: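 AlphaScreen proximity between Ni-chelate-bound BRD4-BD12 (1-477) and streptavidin-captured H4 K5/K8/K12/K16-acetyl peptide measured after 1 h room-temperature compound incubation and 30 min with 7.5 μg/ml beads. Buffer: 50 mM HEPES pH 7.5, 50 mM NaCl, 0.01% BSA, 0.01% Triton X-100; data plate-normalized and four-parameter fit for IC50.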

SMILES | pIC50
Cc1noc(C)c1-c1cnc2c(c1)c(-c1cnn(C(C)(C)C(=O)O)c1)cn2C(c1ccccn1)C1CCCC1 (stereo not drawn) [P-0035, 2-(4-(1-(cyclopentyl(pyridin-2-yl)methyl)-5-(3,5-dimethylisoxazol-4-yl)-1H-pyrrolo[2,3-b]pyridin-3-yl)-1H-pyrazol-1-yl)-2-methylpropanoic acid] | 5.10 to 6.00
Cc1noc(C)c1-c1cnc2c(c1)c(-c1cnn(CC(=O)O)c1)cn2C(c1ccccn1)C1CCCC1 (stereo not drawn) [P-0036, 2-(4-(1-(cyclopentyl(pyridin-2-yl)methyl)-5-(3,5-dimethylisoxazol-4-yl)-1H-pyrrolo[2,3-b]pyridin-3-yl)-1H-pyrazol-1-yl)acetic acid] | 5.10 to 6.00
Cc1noc(C)c1-c1cnc2c(c1)c(-c1cnn(CC(C)(C)O)c1)cn2C(c1ccccn1)C1CCCC1 (stereo not drawn) [P-0037, 1-(4-(1-(cyclopentyl(pyridin-2-yl)methyl)-5-(3,5-dimethylisoxazol-4-yl)-1H-pyrrolo[2,3-b]pyridin-3-yl)-1H-pyrazol-1-yl)-2-methylpropan-2-ol] | 5.10 to 6.00
Cc1noc(C)c1-c1cnc2c(c1)c(-c1ccc(C(=O)O)c(Cl)c1)cn2C(c1ccccn1)C1CCCC1 (stereo not drawn) [P-0038, 2-chloro-4-(1-(cyclopentyl(pyridin-2-yl)methyl)-5-(3,5-dimethylisoxazol-4-yl)-1H-pyrrolo[2,3-b]pyridin-3-yl)benzoic acid] | 5.10 to 6.00
COC(=O)c1cc(-c2cn(C(c3ccccn3)C3CCCC3)c3ncc(-c4c(C)noc4C)cc23)ccn1 (stereo not drawn) [P-0040, methyl 4-(1-(cyclopentyl(pyridin-2-yl)methyl)-5-(3,5-dimethylisoxazol-4-yl)-1H-pyrrolo[2,3-b]pyridin-3-yl)picolinate] | 5.10 to 6.00
Cc1noc(C)c1-c1cnc2c(c1)c(-c1ccnc(C(=O)O)c1)cn2C(C1CC1)C1CC1 [P-0041, 4-(1-(dicyclopropylmethyl)-5-(3,5-dimethylisoxazol-4-yl)-1H-pyrrolo[2,3-b]pyridin-3-yl)picolinic acid] | 6.00 to 10.00
Cc1noc(C)c1-c1cnc2c(c1)c(-c1ccnc(C(=O)O)c1)cn2Cc1ccccc1 [P-0042, 4-(1-benzyl-5-(3,5-dimethylisoxazol-4-yl)-1H-pyrrolo[2,3-b]pyridin-3-yl)picolinic acid] | 6.00 to 10.00
Cc1noc(C)c1-c1cnc2c(c1)c(-c1ccnc(C(=O)O)c1)cn2C(c1ccccn1)C1CCC1 (stereo not drawn) [P-0043, 4-(1-(cyclobutyl(pyridin-2-yl)methyl)-5-(3,5-dimethylisoxazol-4-yl)-1H-pyrrolo[2,3-b]pyridin-3-yl)picolinic acid] | 5.10 to 6.00
Cc1noc(C)c1-c1cnc2c(c1)c(-c1ccnc(C(=O)O)c1)cn2Cc1ccccn1 [P-0044, 4-(5-(3,5-dimethylisoxazol-4-yl)-1-(pyridin-2-ylmethyl)-1H-pyrrolo[2,3-b]pyridin-3-yl)picolinic acid] | 6.00 to 10.00
Cc1noc(C)c1-c1cnc2c(c1)c(-c1ccnc(C(=O)O)c1)cn2CC1CC1 [P-0045, 4-(1-(cyclopropylmethyl)-5-(3,5-dimethylisoxazol-4-yl)-1H-pyrrolo[2,3-b]pyridin-3-yl)picolinic acid] | 6.00 to 10.00
COC(=O)c1cc(-c2cn(C(c3ccccn3)C3CCC3)c3ncc(-c4c(C)noc4C)cc23)ccn1 (stereo not drawn) [P-0046, methyl 4-(1-(cyclobutyl(pyridin-2-yl)methyl)-5-(3,5-dimethylisoxazol-4-yl)-1H-pyrrolo[2,3-b]pyridin-3-yl)picolinate] | 3.00 to 5.10
COc1cc(C(=O)O)ccc1-c1cn([C@@H](C)c2ccccn2)c2ncc(-c3c(C)noc3C)cc12 [P-0047, (S)-4-(5-(3,5-dimethylisoxazol-4-yl)-1-(1-(pyridin-2-yl)ethyl)-1H-pyrrolo[2,3-b]pyridin-3-yl)-3-methoxybenzoic acid] | 5.10 to 6.00
Cc1noc(C)c1-c1cnc2c(c1)c(-c1cccc(C(=O)O)c1)cn2Cc1ccccc1 [P-0048, 3-(1-benzyl-5-(3,5-dimethylisoxazol-4-yl)-1H-pyrrolo[2,3-b]pyridin-3-yl)benzoic acid] | 5.10 to 6.00
Cc1noc(C)c1-c1cnc2c(c1)c(-c1cccc(C(=O)O)c1)cn2Cc1ccccn1 [P-0049, 3-(5-(3,5-dimethylisoxazol-4-yl)-1-(pyridin-2-ylmethyl)-1H-pyrrolo[2,3-b]pyridin-3-yl)benzoic acid] | 3.00 to 5.10
Cc1noc(C)c1-c1cnc2c(c1)c(-c1cccc(C(=O)O)c1)cn2CC1CC1 [P-0050, 3-(1-(cyclopropylmethyl)-5-(3,5-dimethylisoxazol-4-yl)-1H-pyrrolo[2,3-b]pyridin-3-yl)benzoic acid] | 3.00 to 5.10
Cc1noc(C)c1-c1cnc2c(c1)c(C#CC(C)(C)C(=O)O)cn2Cc1ccccc1 [P-0051, 4-(1-benzyl-5-(3,5-dimethylisoxazol-4-yl)-1H-pyrrolo[2,3-b]pyridin-3-yl)-2,2-dimethylbut-3-ynoic acid] | 3.00 to 5.10
COC(=O)c1cc(-n2cc(Cc3ccccc3)c3ncc(-c4c(C)noc4C)cc32)ccn1 [P-0052, methyl 4-(3-benzyl-6-(3,5-dimethylisoxazol-4-yl)-1H-pyrrolo[3,2-b]pyridin-1-yl)picolinate] | 5.10 to 6.00
Cc1noc(C)c1-c1cnc2c(Cc3ccccc3)cn(-c3ccnc(C(=O)O)c3)c2c1 [P-0053, 4-(3-benzyl-6-(3,5-dimethylisoxazol-4-yl)-1H-pyrrolo[3,2-b]pyridin-1-yl)picolinic acid] | 5.10 to 6.00
Cc1noc(C)c1-c1cnc2c(C(=O)c3ccccc3)cn(-c3ccnc(C(=O)O)c3)c2c1 [P-0054, 4-(3-benzoyl-6-(3,5-dimethylisoxazol-4-yl)-1H-pyrrolo[3,2-b]pyridin-1-yl)picolinic acid] | 6.00 to 10.00
Cc1noc(C)c1-c1cnc2c(c1)c(-c1ccc(C(=O)O)cc1OC(F)(F)F)cn2-c1ccc(C2CC2)nc1 [P-0388, 4-(1-(6-cyclopropylpyridin-3-yl)-5-(3,5-dimethylisoxazol-4-yl)-1H-pyrrolo[2,3-b]pyridin-3-yl)-3-(trifluoromethoxy)benzoic acid] | 5.10 to 6.00
Cc1noc(C)c1-c1cnc2c(c1)c(-c1ccc(C(=O)O)cc1OC(F)(F)F)cn2C1CCC(C#N)C1 (stereo not drawn) [P-0389, 4-(1-(3-cyanocyclopentyl)-5-(3,5-dimethylisoxazol-4-yl)-1H-pyrrolo[2,3-b]pyridin-3-yl)-3-(trifluoromethoxy)benzoic acid] | 5.10 to 6.00
Cc1noc(C)c1-c1cnc2c(c1)c(-c1c(Cl)cc(C(=O)O)cc1OCC(F)F)cn2-c1cnc(C2CC2)nc1 [P-0390, 3-chloro-4-(1-(2-cyclopropylpyrimidin-5-yl)-5-(3,5-dimethylisoxazol-4-yl)-1H-pyrrolo[2,3-b]pyridin-3-yl)-5-(2,2-difluoroethoxy)benzoic acid] | 5.10 to 6.00
Cc1noc(C)c1-c1cnc2c(c1)c(-c1c(Cl)cc(C(=O)O)cc1OC1CCC1)cn2-c1cnc(C2CC2)nc1 [P-0391, 3-chloro-5-cyclobutoxy-4-(1-(2-cyclopropylpyrimidin-5-yl)-5-(3,5-dimethylisoxazol-4-yl)-1H-pyrrolo[2,3-b]pyridin-3-yl)benzoic acid] | 5.10 to 6.00
COc1ncc(-n2cc(-c3ccc(C(=O)O)cc3OC(F)(F)F)c3cc(-c4c(C)noc4C)cnc32)cn1 [P-0392, 4-(5-(3,5-dimethylisoxazol-4-yl)-1-(2-methoxypyrimidin-5-yl)-1H-pyrrolo[2,3-b]pyridin-3-yl)-3-(trifluoromethoxy)benzoic acid] | 5.10 to 6.00
